From patent publication US7939534B2, “Certain chemical entities, compositions, and methods” (Cytokinetics, Inc., priority 2006, dated 2011)
Where “and” joins values, the source holds several entries; their conditions need not be identical. Equal entries are not always repeated.

molecular target: T1, chicken gizzard smooth muscle myosin subfragment-1 chemically crosslinked to either cardiac or skeletal actin (Gallus gallus, UniProt P10587); test: Dose dependent smooth muscle myosin ATPase modulation (pyruvate kinase/horseradish peroxidase/pyruvate oxidase-coupled ATPase assay); format: biochemical; conditions: read-out: IC50 Arithmetic Mean
T1 construct: chicken gizzard smooth muscle myosin subfragment-1; from tissue; host or cells: chicken gizzard
Method: In Vitro Model of Dose Dependent Smooth Muscle Myosin Atpase Modulation
Screening assays were performed using a pyruvate kinase and lactate dehydrogenase-coupled ATPase assay containing the following reagents: Potassium PIPES (50 mM ), MgCl2 (3 mM ), KCl (100 mM ), ATP (0.15 mM ), DTT (1 mM ), BSA (0.1 mg/ml), NADH (0.5 mM ), PEP (1.5 mM ), pyruvate kinase (4 U/ml), lactate dehydrogenase (8 U/ml), and antifoam (50 ppm) (concentrations expressed are final assay concentrations). The pH was adjusted to 6.80 at 22° C. by addition of potassium hydroxide. Lead optimization assays were performed with a more sensitive pyruvate kinase/horseradish peroxidase/pyruvate oxidase-coupled ATPase assay containing the following reagents: Potassium PIPES (12 mM ), MgCl2 (2 mM ), KCl (100 mM ), ATP (0.15 mM ), BSA (0.05 mg/ml), potassium phosphate (2 mM ), amplex red (0.1 mM ), PEP (0.1 mM ), pyruvate kinase (4 U/ml), horseradish peroxidase (0.5 U/ml), pyruvate oxidase (0.5 U/ml), and antifoam (50 ppm) (concentrations expressed are final assay concentrations). The pH was adjusted to 7.00 at 22° C. by addition of potassium hydroxide.
The protein components specific to this assay are chicken gizzard smooth muscle myosin subfragment-1 that has been chemically crosslinked to either cardiac or skeletal actin using an excess of 1-Ethyl-3-[3-dimethylaminopropyl]carbodiimide hydrochloride and N-hydroxysuccinimide. The exact concentration of the crosslinked smooth muscle myosin in the assay is determined empirically, by titration to achieve a desired rate of ATP hydrolysis. The concentration varies between protein preparations due to variations in the fraction of active molecules in each preparation.
Compound dose response assays are performed by first preparing a dilution series of test compound, each with an assay mixture containing potassium PIPES, MgCl2, KCl, ATP, BSA, potassium phosphate, amplex red, PEP, crosslinked smooth muscle actomyosin (subfragment-1), antifoam, and water. The assay is started by adding an equal volume of solution containing potassium Pipes, MgCl2, KCl, BSA, potassium phosphate, pyruvate kinase, horseradish peroxidase, pyruvate oxidase, antifoam, and water. ATP hydrolysis is monitored by measuring the fluorescence of amplex red (excitation at 480 nm, emission at 615 nm). The resulting dose response curve is fit by the 4 parameter equation y=Bottom+((Top−Bottom)/(1+((IC50/X)^Hill))). The IC50 is defined as the concentration at which ATPase activity is midway between the top and bottom of the dose response curve.

How did the IC50 turn out when `O=C(NCc1cccnc1)c1ccc(N2CCC(CO)CC2)nc1NCCc1cccc(F)c1` [Compound 19, (2-{[2-(3-fluorophenyl)ethyl]amino}-6-[4-(hydroxymethyl)piperidyl](3-pyridyl))-N-(3-pyridylmethyl)carboxamide] was run?
The IC50 was 0.382 µM.

Which IC50 does the source give for `C[C@H](CNC(=O)c1cc(F)c(N2CCCC2)nc1NCCc1cccc(F)c1)NC(=O)CNC(=O)OC(C)(C)C` [Compound 63, N-{(1R)-2-[(5-fluoro-2-{[2-(3-fluorophenyl)ethyl]amino}-6-pyrrolidinyl(3-pyridyl))carbonylamino]-isopropyl}-2-[(tert-butoxy)carbonylamino]acetamide] here?
The IC50 was 15.1 µM.

For `O=C(NCc1cccnc1)c1ccc(N2CCC(c3ccncc3)C2)nc1NCCc1cccc(F)c1` (centres unmarked) [Compound 96, (2-{[2-(3-fluorophenyl)ethyl]amino}-6-(3-(4-pyridyl)pyrrolidinyl)(3-pyridyl))-N-(3-pyridylmethyl)carboxamide], which IC50 is on record?
The IC50 was 2.97 µM.

Which IC50 does the source give for `O=C(NCc1cccnc1)c1ccc(N2CCC(C(F)(F)F)C2)nc1NCCc1cccc(F)c1` (centres unmarked) [Compound 99, (2-{[2-(3-fluorophenyl)ethyl]amino}-6-[3-(trifluoromethyl)pyrrolidinyl](3-pyridyl))-N-(3-pyridylmethyl)carboxamide] here?
The IC50 was 2.49 µM.

Which IC50 does the source give for `O=C(NCc1cccnc1)c1ccc(N2CCCCC2=O)nc1NCCc1cccc(F)c1` [Compound 10, (2-{[2-(3-fluorophenyl)ethyl]amino}-6-(2-oxopiperidyl)(3-pyridyl))-N-(3-pyridylmethyl)carboxamide] here?
Its IC50 is 5.4 µM.

`NCc1ncccc1CNC(=O)c1ccc(N2CCCCC2)nc1NCCc1cccc(F)c1` [Compound 40, N-{[2-(aminomethyl)(3-pyridyl)]methyl}(2-{[2-(3-fluorophenyl)ethyl]amino}-6-piperidyl(3-pyridyl))carboxamide] was tested. Which IC50 did it give?
The IC50 was 0.0656 µM.

With `N[C@H]1CCN(c2ccc(C(=O)NCc3cccnc3)c(NCCc3cccc(F)c3)n2)C1` [Compound 30, (6-((3S)-3-aminopyrrolidinyl)-2-{[2-(3-fluorophenyl)ethyl]amino}(3-pyridyl))-N-(3-pyridylmethyl)carboxamide] as the compound, how does the IC50 read?
The IC50 was 28.4 µM.

How did the IC50 turn out when `O=C(NCc1cccnc1)c1ccc(N2CCS(=O)(=O)CC2)nc1NCCc1cccc(F)c1` [Compound 122, (6-(1,1-dioxo(1,4-thiazaperhydroin-4-yl))-2-{[2-(3-fluorophenyl)ethyl]amino}(3-pyridyl))-N-(3-pyridylmethyl)carboxamide] was run?
Its IC50 is 29.9 µM.

With `CC(=O)NC[C@@H]1CCN(c2ccc(C(=O)NCc3cccnc3)c(NCCc3cccc(F)c3)n2)C1` [Compound 1, N-{[(3S)-1-(6-{[2-(3-fluorophenyl)ethyl]amino}-5-[N-(3-pyridylmethyl)carbamoyl](2-pyridyl))pyrrolidin-3-yl]methyl}acetamide] as the compound, how does the IC50 read?
Its IC50 is 3.77 µM.

With `CNC(=O)CNC(=O)c1ccc(N2CC[C@@H](O)C2)nc1NCCc1cccc(F)c1` [2-[(6-((3R)-3-hydroxypyrrolidinyl)-2-{[2-(3-fluorophenyl)ethyl]amino}(3-pyridyl))carbonylamino]-N-methylacetamide] as the compound, how does the IC50 read?
Its IC50 is 3.44 µM and 3.69 µM.

Which IC50 does the source give for `CS(=O)(=O)C1CCN(c2ccc(C(=O)NCc3cccnc3)c(NCCc3cccc(F)c3)n2)C1` (centres unmarked) [Compound 107, (2-{[2-(3-fluorophenyl)ethyl]amino}-6-[3-(methylsulfonyl)pyrrolidinyl](3-pyridyl))-N-(3-pyridylmethyl)carboxamide] here?
The IC50 was 11.5 µM.

Which IC50 does the source give for `CN(C)C(=O)c1ccc(N2CCCCC2=O)nc1NCCc1cccc(F)c1` [Compound 26, (2-{[2-(3-fluorophenyl)ethyl]amino}-6-(2-oxopiperidyl)(3-pyridyl))-N,N-dimethylcarboxamide] here?
The IC50 was 53.4 µM.

With `NC(=O)CCNC(=O)c1ccc(N2CCCC2)nc1NCCc1cccc(F)c1` [Compound 13, N-(2-carbamoylethyl)(2-{[2-(3-fluorophenyl)ethyl]amino}-6-pyrrolidinyl(3-pyridyl))carboxamide] as the compound, how does the IC50 read?
The IC50 was 1.59 µM.

With `O=C(NCc1cccnc1)c1ccc(N2CC=CCC2)nc1NCCc1cccc(F)c1` [Compound 47, (2-{[2-(3-fluorophenyl)ethyl]amino}-6-(1,2,5,6-tetrahydropyridyl)(3-pyridyl))-N-(3-pyridylmethyl)carboxamide] as the compound, how does the IC50 read?
Its IC50 is 0.687 µM.
